What all share (assay): NCI anticancer screen, dose series, 48 h
Assay [1] has as its system SN12C.
For assay [2], the system named is SK-MEL-28.
The test system of assay [3] is ACHN.
Assay [4] has as its system OVCAR-8.
Assay [5] concerns HOP-92.
Assay [6] deals with HOP-62.
In assay [7] the test system is LOX IMVI.
The subject of assay [8] is SK-MEL-5.
In assay [9] the test system is NCI-H460.
Assay [10] deals with EKVX.
The subject of assay [11] is CAKI-1.
Assay [12] concerns HT-29.
Assay [13] relates to OVCAR-5.
Assay [14] deals with KM12.
The test system of assay [15] is NCI-H23.
The subject of assay [16] is Malme-3M.
Assay [17] concerns HCT-15.

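48-hour exposure; five concentrations; linearly interpolated endpoints. Here, GI50 denotes the concentration required for 50% inhibition of growth.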 Calls of active or inactive are those of the source. No stated cut-off is given here; in the data, active = GI50 up to about 1.1 µM and inactive = higher.

`COC(C(=O)NCCCCNC(=O)C(OC)c1ccccc1)c1ccccc1` (stereo not drawn): the GI50 in [1], in [2], in assay [3], in assay [4], in assay [5] and in [6] was > 100 µM (inactive) each time. Besides, the GI50 in assay [7], in assay [8], in [9], in [10], in assay [11] and in [12] was > 100 µM (inactive) each time. In addition, the GI50 in assay [13] is > 100 µM (inactive); in assay [14], > 100 µM (inactive); in assay [15], > 100 µM (inactive); in [16], > 100 µM (inactive); in [17], greater than 100 µM.

Take `CC(C)(C)c1cc(C(=O)O)c2c(c1)C(=O)OC2(c1ccccc1)c1ccccc1C(=O)O` (stereo not drawn): the GI50 in assay [1] was > 100 µM (inactive); in assay [2], > 100 µM (inactive); in assay [3] it was 77.3 µM (inactive); in [4], > 100 µM (inactive); in assay [5], > 100 µM (inactive); in assay [6] it was > 100 µM (inactive). For the same compound, the GI50 in assay [7], in assay [9], in assay [10], in [11], in assay [12] and in assay [13] was > 100 µM (inactive) in each case. The GI50 is > 100 µM (inactive) in [14], > 100 µM (inactive) in assay [15], > 100 µM (inactive) in assay [16] and greater than 100 µM in assay [17].

As to `Cc1ccccc1-c1c(N)nc(N)nc1C(=O)Nc1nccs1`, the GI50 in assay [1], in assay [2], in [3], in assay [4], in assay [5] and in [6] was > 100 µM (inactive) each time. Besides, the GI50 in assay [7], in assay [8], in assay [9], in assay [10], in assay [11] and in assay [12] was > 100 µM (inactive) each time. The GI50 in assay [13] was > 100 µM (inactive); in assay [14] it was > 100 µM (inactive); in [15], > 100 µM (inactive); in [16] it was > 100 µM (inactive); in assay [17], greater than 100 µM.

As for `CCC(=O)OC[n+]1ccc2c(C)c3[nH]c4ccccc4c3c(C)c2c1`, the GI50 was 0.401 µM (active) in assay [1]; 1.38 µM (inactive) in [2]; 0.289 µM (active) in [3]; 0.454 µM (active) in assay [4]; 0.107 µM (active) in [5]; 0.337 µM (active) in assay [7]. The GI50 in [8] is 1.25 µM (inactive); in assay [9], 0.033 µM (active); in [11], 1.11 µM (active); in assay [12], 0.328 µM (active); in [13], 0.516 µM (active); in [14] it was 0.483 µM (active). In addition, the GI50 in [15] was 0.675 µM (active); in assay [16], 1.35 µM (inactive).

As for `CCN/C(=N\Nc1ccc([N+](=O)[O-])cc1)P(=O)(OC(C)C)OC(C)C`, the GI50 in assay [1] is > 100 µM (inactive); in assay [2] it was 99.8 µM (inactive); in assay [3] it was > 100 µM (inactive); in [4] it was > 100 µM (inactive); in assay [5], 66.5 µM (inactive); in assay [6] it was 95.9 µM (inactive). In addition, the GI50 in assay [7] was > 100 µM (inactive); in assay [8], 41.1 µM (inactive); in assay [9] it was > 100 µM (inactive); in assay [10] it was > 100 µM (inactive); in assay [11], > 100 µM (inactive); in [13], > 100 µM (inactive). Besides, the GI50 was > 100 µM (inactive) in [14], > 100 µM (inactive) in assay [15], 51.2 µM (inactive) in assay [16] and greater than 100 µM in assay [17].

Take `Cc1nc2ccccc2c(=O)n1/N=C(\N=N\c1ccccc1Cl)c1ccccc1`: the GI50 in assay [2] was 41.5 µM (inactive); in assay [4], 31.3 µM (inactive); in assay [5], 36.5 µM (inactive); in assay [6], 19.1 µM (inactive); in [7], 24.8 µM (inactive); in assay [8], 19.4 µM (inactive). For the same compound, the GI50 in assay [9] is 23.9 µM (inactive); in [10] it was 20.8 µM (inactive); in assay [11], 23.4 µM (inactive); in assay [12] it was 25.6 µM (inactive); in [15] it was 44.5 µM (inactive); in [17], 22.2 µM.

Regarding `C=CCNC1=NC(=O)C(CC(=O)Nc2ccc([N+](=O)[O-])cc2[N+](=O)[O-])S1` (stereo not drawn), the GI50 in assay [1] is > 100 µM (inactive); in assay [2], > 100 µM (inactive); in assay [3], 90.6 µM (inactive); in assay [4], > 100 µM (inactive); in [5], 85.7 µM (inactive); in assay [6], > 100 µM (inactive). The GI50 was > 100 µM (inactive) in [8]; > 100 µM (inactive) in [9]; > 100 µM (inactive) in assay [10]; 83.8 µM (inactive) in assay [11]; > 100 µM (inactive) in assay [12]; > 100 µM (inactive) in assay [13]. The GI50 in assay [14] was > 100 µM (inactive); in assay [15], > 100 µM (inactive); in [16] it was > 100 µM (inactive); in assay [17], greater than 100 µM.

Consider `O=C(/C=C1\Nc2ccccc2C(=O)N1c1ccc(Cl)cc1)c1ccncc1`, for which the GI50 in assay [1], in [2], in assay [3], in [4], in [5] and in [6] was > 100 µM (inactive) throughout. The GI50 in assay [8], in [9], in [10], in assay [11], in assay [12] and in assay [13] was > 100 µM (inactive) each time. In addition, the GI50 in [14] is > 100 µM (inactive); in assay [15] it was > 100 µM (inactive); in [16], 60.1 µM (inactive); in assay [17], greater than 100 µM.

For the compound `COC(=O)[C@@]12C3=NO[C@]1(C(=O)OC)C(O[Si](C)(C)C(C)(C)C)[C@H]1OC(C)(C)O[C@H]1[C@@H]2C(OCc1ccccc1)CC3` (stereo partly drawn), the GI50 in assay [1] is 89.7 µM (inactive); in assay [2] it was > 100 µM (inactive); in assay [3] it was 13.2 µM (inactive); in assay [4] it was 92.5 µM (inactive); in assay [5], 2.75 µM (inactive); in assay [7] it was 69 µM (inactive). The GI50 in assay [8] was 35.1 µM (inactive); in assay [9] it was 6.21 µM (inactive); in assay [10], 89.1 µM (inactive); in assay [12], 67.3 µM (inactive); in assay [14], 28.3 µM (inactive); in assay [15] it was 80.4 µM (inactive). The GI50 in [17] was greater than 100 µM.

For the compound `O=[N+]([O-])c1c(/C=N/Nc2ccccc2)oc(-c2ccc3c(c2)OCO3)c1-c1ccc2c(c1)OCO2`, the GI50 in assay [1] is 64.3 µM (inactive); in assay [2], 23.4 µM (inactive); in assay [3], 4.28 µM (inactive); in assay [4] it was 5.56 µM (inactive); in [5], 19.8 µM (inactive); in [6], 3.9 µM (inactive). The GI50 in [7] was 0.74 µM (active); in assay [10], 12.4 µM (inactive); in assay [11] it was 8.22 µM (inactive); in [12], 23.8 µM (inactive); in assay [13], 5.79 µM (inactive); in assay [15], 51.2 µM (inactive). The GI50 in assay [16] is 16.4 µM (inactive).

As to `COc1cc(/C=C\c2ccc(O)cc2)cc(OC)c1OC`, the GI50 was 4.9 µM (inactive) in assay [1]; 1.91 µM (inactive) in assay [2]; 8.17 µM (inactive) in assay [3]; 6.95 µM (inactive) in assay [4]; 0.293 µM (active) in assay [5]; 5.19 µM (inactive) in assay [7]. For the same compound, the GI50 in [8] was 1.18 µM (inactive); in assay [9] it was 3.33 µM (inactive); in assay [10] it was 9.93 µM (inactive); in assay [11], 4.71 µM (inactive); in [12], 15.3 µM (inactive); in [13], 98.9 µM (inactive). Further, the GI50 in [14] is 0.883 µM (active); in assay [15] it was 0.505 µM (active); in assay [16] it was 4.25 µM (inactive); in assay [17] it was 0.518 µM.

`COC(=O)C1Cc2c([nH]c3ccccc23)C(c2ccccc2O)N1` (stereo not drawn): the GI50 in [1] was 55.2 µM (inactive); in [2], > 100 µM (inactive); in assay [3] it was 58.1 µM (inactive); in [4], 68.1 µM (inactive); in assay [5], > 100 µM (inactive); in [7] it was 60.8 µM (inactive). The GI50 is 59 µM (inactive) in assay [8]; 18.5 µM (inactive) in assay [9]; > 100 µM (inactive) in [10]; 98.6 µM (inactive) in [11]; 44.9 µM (inactive) in assay [12]; > 100 µM (inactive) in [13]. In addition, the GI50 in assay [14] is 60.3 µM (inactive); in [15], 52 µM (inactive); in assay [16], > 100 µM (inactive); in [17] it was 30.5 µM.

In the case of `Cc1cnc2c(c1)C(=O)C1=C(OC(C)(C)CC1O)C2=O` (stereo not drawn), the GI50 in assay [1] is 15.6 µM (inactive); in assay [2], 17.3 µM (inactive); in assay [3] it was 15.2 µM (inactive); in assay [4], 15 µM (inactive); in [5], 16.7 µM (inactive); in assay [6], 19.4 µM (inactive). The GI50 in assay [7] was 10.5 µM (inactive); in [8], 14 µM (inactive); in [9] it was 11 µM (inactive); in [10] it was 20.7 µM (inactive); in [12], 20.6 µM (inactive); in [13] it was > 100 µM (inactive). The GI50 in [14] is > 100 µM (inactive); in [15], 10.7 µM (inactive); in assay [16] it was 14.4 µM (inactive); in assay [17] it was 16.7 µM.

The values above are taken from ChEMBL document CHEMBL1201862, “PubChem BioAssay data set” (2004).
